Results: patent US5278068A, “Biologically pure culture of Cytospora useful as angiotensin II antagonist” (Merck & Co., Inc., priority 1992, dated 1994)
“And” between values parts separate entries of the source, which are not always exact repeats. Equal entries are not always repeated.

Columns and labels:
male Sprague-Dawley rats = conditions: rat; known activity; cited from earlier work
rats = conditions: rat; known activity; cited from earlier work
[1] = target: T1, angiotensin II receptor, site 2 (rat adrenal membranes) (Rattus norvegicus, UniProt P35351); assay: Receptor Assay using Rat Adrenal Gland Preparation (125I-Angiotensin II binding); conditions: at site 2, 37° C., 90 minutes
T1 construct: Adrenal membranes for the receptor assay were readied first by placing cleaned, whole adrenal glands in microcentrifuge tubes; from tissue; host or cells: rat adrenal gland membranes
T1 sequence (P35351 1-363): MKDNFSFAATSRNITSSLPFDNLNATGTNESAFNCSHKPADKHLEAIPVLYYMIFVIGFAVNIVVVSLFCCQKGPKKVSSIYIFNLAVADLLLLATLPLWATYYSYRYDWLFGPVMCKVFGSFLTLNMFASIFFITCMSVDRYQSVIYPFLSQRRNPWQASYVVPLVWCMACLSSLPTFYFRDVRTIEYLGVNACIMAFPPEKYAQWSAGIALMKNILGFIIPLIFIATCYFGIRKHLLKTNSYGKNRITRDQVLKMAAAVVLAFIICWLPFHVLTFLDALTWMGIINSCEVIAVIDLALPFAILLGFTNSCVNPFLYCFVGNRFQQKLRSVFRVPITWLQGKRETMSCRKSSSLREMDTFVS
Source text: Angiotensin II (AII) is a powerful arterial vasoconstrictor, and it exerts its action by interacting with specific receptors present on cell membranes. The compounds produced by Cytospora sp. are competitive antagonists of AII at receptor sites. The usefulness of compounds as AII antagonists may be determined from the results of certain receptor binding assays. The initial assay is that using rat adrenal glands and the results of this assay are described herein.
Adrenal membranes for the receptor assay were readied first by placing cleaned, whole adrenal glands in microcentrifuge tubes (20 glands per tube), and freezing and storing under liquid nitrogen. As needed, a microcentrifuge tube of adrenal glands was homogenized in 20 ml 50 mM tris (hydroxymethyl)aminomethane hydrochloride (Tris-HCl) pH 7.7 and centrifuged at 20,000 rpm for 15 minutes at 4° C. […]
For the assay, the adrenal membrane preparation in one vial was resuspended in 30 ml of 100 mM Tris-HCl pH 7.4 with 5 mM MgCl2, 0.2% bovine serum albumin and 0.2 mg/ml bacitracin. […] The vials are counted with a gamma counter for one minute and percent inhibition determined from counts/min (CPM) as follows: [formula] The IC50 is determined by plotting percent inhibition v. concentration of compound tested.

## CN1C(=O)CN=C(c2ccccc2)c2cc(Cl)ccc21 [Diazepam]
Male Sprague-Dawley rats
  activity in conditioned emotional response assay: active in this assay

## CNC(=O)Oc1ccc2c(c1)[C@]1(C)CCN(C)[C@@H]1N2C [physostigmine]
rats
  activity in passive avoidance assay: known to be active

## CCCCCC1=C(C=O)C2OC(C)(C)C(O)CC23OC3C1=O (stereo not drawn) [Compound A]
[1]
  IC50: 1.62 to 3.24 µM and 1 to 2 µM
